{"source": "paper PMC12229529", "about": "(Scientific Reports, 2025)", "key": {"[1]": {"molecular_target": "serine/threonine protein kinase B (PknB)", "assay": "SPR", "format": "binding, Trueperella pyogenes"}, "PknB (His-PknB) [2]": {"molecular_target": "T1, PknB (His-PknB) (Trueperella pyogenes, UniProt A0ABV3NC81)", "T1 sequence (A0ABV3NC81 1-331)": "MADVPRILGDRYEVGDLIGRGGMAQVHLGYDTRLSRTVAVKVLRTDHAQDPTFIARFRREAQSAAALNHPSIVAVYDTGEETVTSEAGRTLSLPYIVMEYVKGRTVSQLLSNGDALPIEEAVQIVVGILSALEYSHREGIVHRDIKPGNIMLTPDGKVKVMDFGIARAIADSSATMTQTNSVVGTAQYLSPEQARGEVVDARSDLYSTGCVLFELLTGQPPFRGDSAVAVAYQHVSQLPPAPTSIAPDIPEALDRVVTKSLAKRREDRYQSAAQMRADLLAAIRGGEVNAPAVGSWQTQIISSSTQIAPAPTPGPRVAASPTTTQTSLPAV", "assay": "SPR", "format": "binding", "conditions": "1x PBS-P buffer; luteolin 0.3125-10 μmol/L (KD lies above the tested range)"}, "PknB (His-PknB) [3]": {"molecular_target": "T1, PknB (His-PknB)", "assay": "ATP consumption luminescence", "format": "biochemical", "conditions": "20 μM ATP, 10 mM MgCl2, 50 mM Tris-HCl pH 7.8, 1 mM DTT, 25 °C, 30 min"}}, "data": [{"smiles": "O=c1cc(-c2ccc(O)c(O)c2)oc2cc(O)cc(O)c12", "note": "[luteolin]", "values": [{"measurement": "Kd", "setting": "[1]", "value": 312, "unit": "µM"}, {"measurement": "Kd", "setting": "PknB (His-PknB) [2]", "value": 312, "unit": "µM"}, {"measurement": "IC50", "setting": "PknB (His-PknB) [3]", "value": 221, "unit": "µM"}]}]}
